{"source": "the NIST ThermoML archive (doi:10.1021/je9002724)", "note": "± gives the expanded uncertainty stated by the source.", "data": [{"test": "activity coefficient (dimensionless); of the first substance listed, at infinite dilution; xn = mol fraction of the nth substance listed", "settings": "303.15 K; Liquid; Chromatography; x1 = 0", "values": [{"smiles": "CC(C)CC(C)(C)C", "note": "[2,2,4-trimethylpentane] + C[n+]1ccn(CCO)c1.F[B-](F)(F)F", "activity coefficient": "412 ± 44"}, {"smiles": "C1=CCCCC1", "note": "[cyclohexene] + C[n+]1ccn(CCO)c1.F[B-](F)(F)F", "activity coefficient": "123 ± 13"}, {"smiles": "CCCCCCCC", "note": "[octane] + C[n+]1ccn(CCO)c1.F[B-](F)(F)F", "activity coefficient": "498 ± 52"}, {"smiles": "Cc1ccccc1C", "note": "[1,2-dimethylbenzene] + C[n+]1ccn(CCO)c1.F[B-](F)(F)F", "activity coefficient": "28.9 ± 3"}, {"smiles": "C=Cc1ccccc1", "note": "[styrene] + C[n+]1ccn(CCO)c1.F[B-](F)(F)F", "activity coefficient": "15.3 ± 1.6"}, {"smiles": "CCCCCCC", "note": "[heptane] + C[n+]1ccn(CCO)c1.F[B-](F)(F)F", "activity coefficient": "620 ± 65"}, {"smiles": "CC1CCCCC1", "note": "[methylcyclohexane] + C[n+]1ccn(CCO)c1.F[B-](F)(F)F", "activity coefficient": "328 ± 35"}, {"smiles": "Cc1ccc(C)cc1", "note": "[1,4-dimethylbenzene] + C[n+]1ccn(CCO)c1.F[B-](F)(F)F", "activity coefficient": "35.4 ± 3.7"}, {"smiles": "CCCCCCCCC", "note": "[nonane] + C[n+]1ccn(CCO)c1.F[B-](F)(F)F", "activity coefficient": "546 ± 58"}, {"smiles": "Cc1ccccc1", "note": "[toluene] + C[n+]1ccn(CCO)c1.F[B-](F)(F)F", "activity coefficient": "18.3 ± 1.9"}, {"smiles": "C1CCCCC1", "note": "[cyclohexane] + C[n+]1ccn(CCO)c1.F[B-](F)(F)F", "activity coefficient": "339 ± 36"}, {"smiles": "c1ccccc1", "note": "[benzene] + C[n+]1ccn(CCO)c1.F[B-](F)(F)F", "activity coefficient": "9.13 ± 0.96"}, {"smiles": "Cc1cccc(C)c1", "note": "[1,3-dimethylbenzene] + C[n+]1ccn(CCO)c1.F[B-](F)(F)F", "activity coefficient": "37.2 ± 3.9"}, {"smiles": "CCc1ccccc1", "note": "[ethylbenzene] + C[n+]1ccn(CCO)c1.F[B-](F)(F)F", "activity coefficient": "42.1 ± 4.4"}]}, {"test": "activity coefficient (dimensionless); of the first substance listed, at infinite dilution; xn = mol fraction of the nth substance listed", "settings": "313.15 K; Liquid; Chromatography; x1 = 0", "values": [{"smiles": "CC(C)CC(C)(C)C", "note": "[2,2,4-trimethylpentane] + C[n+]1ccn(CCO)c1.F[B-](F)(F)F", "activity coefficient": "523 ± 55"}, {"smiles": "C1=CCCCC1", "note": "[cyclohexene] + C[n+]1ccn(CCO)c1.F[B-](F)(F)F", "activity coefficient": "118 ± 12"}, {"smiles": "CCCCCCCC", "note": "[octane] + C[n+]1ccn(CCO)c1.F[B-](F)(F)F", "activity coefficient": "532 ± 56"}, {"smiles": "Cc1ccccc1C", "note": "[1,2-dimethylbenzene] + C[n+]1ccn(CCO)c1.F[B-](F)(F)F", "activity coefficient": "28.2 ± 3"}, {"smiles": "C=Cc1ccccc1", "note": "[styrene] + C[n+]1ccn(CCO)c1.F[B-](F)(F)F", "activity coefficient": "15.1 ± 1.6"}, {"smiles": "CCCCCCC", "note": "[heptane] + C[n+]1ccn(CCO)c1.F[B-](F)(F)F", "activity coefficient": "850 ± 90"}, {"smiles": "CC1CCCCC1", "note": "[methylcyclohexane] + C[n+]1ccn(CCO)c1.F[B-](F)(F)F", "activity coefficient": "373 ± 39"}, {"smiles": "Cc1ccc(C)cc1", "note": "[1,4-dimethylbenzene] + C[n+]1ccn(CCO)c1.F[B-](F)(F)F", "activity coefficient": "34.7 ± 3.6"}, {"smiles": "CCCCCCCCC", "note": "[nonane] + C[n+]1ccn(CCO)c1.F[B-](F)(F)F", "activity coefficient": "564 ± 60"}, {"smiles": "Cc1ccccc1", "note": "[toluene] + C[n+]1ccn(CCO)c1.F[B-](F)(F)F", "activity coefficient": "18 ± 1.9"}, {"smiles": "C1CCCCC1", "note": "[cyclohexane] + C[n+]1ccn(CCO)c1.F[B-](F)(F)F", "activity coefficient": "418 ± 44"}, {"smiles": "c1ccccc1", "note": "[benzene] + C[n+]1ccn(CCO)c1.F[B-](F)(F)F", "activity coefficient": "9.11 ± 0.96"}, {"smiles": "Cc1cccc(C)c1", "note": "[1,3-dimethylbenzene] + C[n+]1ccn(CCO)c1.F[B-](F)(F)F", "activity coefficient": "36.3 ± 3.8"}, {"smiles": "CCc1ccccc1", "note": "[ethylbenzene] + C[n+]1ccn(CCO)c1.F[B-](F)(F)F", "activity coefficient": "40.6 ± 4.3"}]}, {"test": "activity coefficient (dimensionless); of the first substance listed, at infinite dilution; xn = mol fraction of the nth substance listed", "settings": "323.15 K; Liquid; Chromatography; x1 = 0", "values": [{"smiles": "CC(C)CC(C)(C)C", "note": "[2,2,4-trimethylpentane] + C[n+]1ccn(CCO)c1.F[B-](F)(F)F", "activity coefficient": "731 ± 77"}, {"smiles": "C1=CCCCC1", "note": "[cyclohexene] + C[n+]1ccn(CCO)c1.F[B-](F)(F)F", "activity coefficient": "114 ± 12"}, {"smiles": "CCCCCCCC", "note": "[octane] + C[n+]1ccn(CCO)c1.F[B-](F)(F)F", "activity coefficient": "574 ± 61"}, {"smiles": "Cc1ccccc1C", "note": "[1,2-dimethylbenzene] + C[n+]1ccn(CCO)c1.F[B-](F)(F)F", "activity coefficient": "27.7 ± 2.9"}, {"smiles": "C=Cc1ccccc1", "note": "[styrene] + C[n+]1ccn(CCO)c1.F[B-](F)(F)F", "activity coefficient": "14.8 ± 1.6"}, {"smiles": "CCCCCCC", "note": "[heptane] + C[n+]1ccn(CCO)c1.F[B-](F)(F)F", "activity coefficient": "1200 ± 130"}, {"smiles": "CC1CCCCC1", "note": "[methylcyclohexane] + C[n+]1ccn(CCO)c1.F[B-](F)(F)F", "activity coefficient": "421 ± 44"}, {"smiles": "Cc1ccc(C)cc1", "note": "[1,4-dimethylbenzene] + C[n+]1ccn(CCO)c1.F[B-](F)(F)F", "activity coefficient": "33.9 ± 3.6"}, {"smiles": "CCCCCCCCC", "note": "[nonane] + C[n+]1ccn(CCO)c1.F[B-](F)(F)F", "activity coefficient": "582 ± 61"}, {"smiles": "Cc1ccccc1", "note": "[toluene] + C[n+]1ccn(CCO)c1.F[B-](F)(F)F", "activity coefficient": "17.7 ± 1.9"}, {"smiles": "C1CCCCC1", "note": "[cyclohexane] + C[n+]1ccn(CCO)c1.F[B-](F)(F)F", "activity coefficient": "488 ± 52"}, {"smiles": "c1ccccc1", "note": "[benzene] + C[n+]1ccn(CCO)c1.F[B-](F)(F)F", "activity coefficient": "9.1 ± 0.96"}, {"smiles": "Cc1cccc(C)c1", "note": "[1,3-dimethylbenzene] + C[n+]1ccn(CCO)c1.F[B-](F)(F)F", "activity coefficient": "35.5 ± 3.7"}, {"smiles": "CCc1ccccc1", "note": "[ethylbenzene] + C[n+]1ccn(CCO)c1.F[B-](F)(F)F", "activity coefficient": "39 ± 4.1"}]}, {"test": "activity coefficient (dimensionless); of the first substance listed, at infinite dilution; xn = mol fraction of the nth substance listed", "settings": "333.15 K; Liquid; Chromatography; x1 = 0", "values": [{"smiles": "CC(C)CC(C)(C)C", "note": "[2,2,4-trimethylpentane] + C[n+]1ccn(CCO)c1.F[B-](F)(F)F", "activity coefficient": "962 ± 100"}, {"smiles": "C1=CCCCC1", "note": "[cyclohexene] + C[n+]1ccn(CCO)c1.F[B-](F)(F)F", "activity coefficient": "110 ± 12"}, {"smiles": "CCCCCCCC", "note": "[octane] + C[n+]1ccn(CCO)c1.F[B-](F)(F)F", "activity coefficient": "615 ± 65"}, {"smiles": "Cc1ccccc1C", "note": "[1,2-dimethylbenzene] + C[n+]1ccn(CCO)c1.F[B-](F)(F)F", "activity coefficient": "27 ± 2.8"}, {"smiles": "C=Cc1ccccc1", "note": "[styrene] + C[n+]1ccn(CCO)c1.F[B-](F)(F)F", "activity coefficient": "14.6 ± 1.5"}, {"smiles": "CCCCCCC", "note": "[heptane] + C[n+]1ccn(CCO)c1.F[B-](F)(F)F", "activity coefficient": "1610 ± 170"}, {"smiles": "CC1CCCCC1", "note": "[methylcyclohexane] + C[n+]1ccn(CCO)c1.F[B-](F)(F)F", "activity coefficient": "486 ± 51"}]}]}
